Measurements published in patent publication US11312722B2, “Hsp90 inhibitors and uses thereof” (TRUSTEES OF BOSTON UNIVERSITY, priority 2019, dated 2022).

Experiments:
C. neoformans Hsp90 NBD [1] = biological target: T1, C. neoformans Hsp90 NBD (Cryptococcus neoformans, UniProt J9VVA4); assay: biochemical; assay type: binding; details: SPR, 25° C., read-out: Biacore KD
Protocol: (§1) SPR assays. For SPR experiments, Hsp90 NBD expression constructs were modified to encode a C-terminal AviTag™ for site-specific on-column biotinylation with a BirA biotin-ligase kit (Avidity LLC; BirA-500). SPR experiments were performed on a Biacore T200 instrument at 25° C. Biotinylated Hsp90 NBD was diluted to 40 μg/mL and immobilized on a streptavidin chip (Sensor Chip SA, GE Healthcare) at a density of 2000-2500 response units (RU) on the biosensor surface. […] Resulting sensorgrams were analyzed with a fit to a 1:1 binding model, using BIA evaluation software.

C. albicans Hsp90 NBD [2] = biological target: T2, C. albicans Hsp90 NBD (Candida albicans (strain SC5314 / ATCC MYA-2876) (Yeast), UniProt P46598); assay: biochemical; assay type: binding
Protocol: as §1

[3] = system: C. neoformans (Strain H99); assay: Antifungal sensitivity testing (MIC), C. neoformans H99; assay type: cell-based; details: for C. neo Active (cells): Yes/No call
C. neoformans Hsp90 NBD [4] = biological target: T1, C. neoformans Hsp90 NBD; assay: FP assay with purified C. neoformans Hsp90 NBD (Ki); assay type: binding; details: for C. neo Selectivity (FS): C. neo FS calculated using Ki
Protocol: Thermal shift assays were performed under saturating ligand conditions, i.e. equimolar concentrations (10 μM) of protein and ligand. As a result, they can provide only qualitative evidence of target binding, but not a quantitative measurement of ligand affinity. […] Titrations of the Cy3-GdA probe and purified proteins were evaluated to define assay conditions and to determine the dissociation constant Kd of the probe for each NBD. Serial dilutions of test Hsp90 inhibitors were then assayed in triplicate wells under these conditions. Non-linear 4-parameter curve fitting of raw displacement data was performed in GraphPad Prism 5.0 to determine IC50 values. Finally, inhibitory constants (Ki) were calculated as described previously.
NBD expression and purification. Recombinant Hsp90 NBDs were expressed and purified as previously described. Stock protein solutions in 50% glycerol were stored at −20° C. until dilution into relevant buffers and use for FP and thermal shift assays.

[5] = biological target: Hsp90 (C. neoformans whole cell lysate) (Cryptococcus neoformans, UniProt J9VVA4); assay type: binding; details: for C. neo Active (biochemical): Yes/No call; for EC50: read-out: C. neo EC50
How it was run: (§2)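 In this fluorescence polarization competition assay, compound titrations in buffer with 0.1 mg/mL bovine gamma globulin were mixed with fungal whole-cell lysate spiked with 0.1 nM Cy3-geldanamycin probe. Plates were incubated 4.5 h at room temperature. EC50 came from 4-parameter fits of probe displacement, normalized to GdA in the same lysate.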

[6] = system: Hsp90 (C. neoformans whole cell lysate); assay type: binding; details: Yes/No call
How it was run: as §2

[7] = system: Hsp90 (C. albicans whole cell lysate); assay: biochemical; assay type: binding; details: for C. alb Selective: Yes/No call
How it was run: as §2

[8] = biological target: Hsp90 (C. albicans whole cell lysate) (Candida albicans (strain SC5314 / ATCC MYA-2876) (Yeast), UniProt P46598); assay: biochemical; assay type: binding; details: for C. alb Active (biochemical): Yes/No call; for EC50: read-out: C. alb EC50
How it was run: as §2

C. neoformans Hsp90 NBD [9] = biological target: T1, C. neoformans Hsp90 NBD; assay: Protein thermal shift assay, C. neoformans Hsp90 NBD; assay type: binding; details: equimolar protein and ligand (10 μM)
Protocol: […]. Using recombinant proteins, assay-independent nanomolar inhibitory constants (Ki) were defined for these compounds. Binding of the compounds to their relevant NBD by thermal shift denaturation assays was also confirmed. Thermal shift assays were performed under saturating ligand conditions, i.e. equimolar concentrations (10 μM) of protein and ligand. As a result, they can provide only qualitative evidence of target binding, but not a quantitative measurement of ligand affinity. […] […]. C. neoformans or C. albicans Hsp90 NBD was combined with equimolar concentrations of the indicated bioactive inhibitors (10 μM) or DMSO control, in technical triplicates. The protein was heated from 25 to 98.6° C. at 0.2° C./5 s in the presence of Sypro Orange dye. All compounds induce an increase in melting temperature relative to the DMSO control, reported as ΔTm.
Protein thermal shift assays. Thermal melting curves were determined using a Protein Thermal Shift Kit (ThermoFisher #4462263), employing a CFX384 Real-Time PCR System (Bio-Rad, C1000 Touch Thermal Cycler). Reactions were performed in a final volume of 10 μL, and contained purified C. albicans or C. neoformans Hsp90 NBD diluted to 250 μg/mL in Buffer HBS-P (GE Healthcare Life Sciences, 0.01 M HEPES pH 7.4, 0.15 M NaCl, 0.005% v/v Surfactant P20) with 10 μM synthetic analog or DMSO control, and 1× Sypro Orange dye solution. Samples were prepared in triplicate in 384-well white plates (Bio-Rad; HSP3805). The instrument was set to melt curve, step 1 (25° C., 2 min) and step 2 (ramp to 98.6° C., increasing 0.2° C. per 5 s cycle). The inflection point of each curve is defined as the protein melting temperature (Tm). Temperature shift, ΔTm, was recorded as the difference between the Tm of the fungal Hsp90 NBD with compound minus Tm of the protein without compound.

[10] = system: C. albicans clinical isolate (CaCi2); assay: Fungicidal activity: spotting of MIC cultures onto compound-free YPD agar; assay type: cell-based; details: C. albicans CaCi2, spotted on YPD agar after 48 h exposure
Protocol: (§3) Color scale bar: no growth inhibition (green) to complete inhibition (black). Each shaded box represents the mean of technical duplicates. The experiment was repeated as an independent biological replicate to confirm results.
(§4) Each shaded box represents the mean of technical duplicates. Relative viable cell number was monitored by standard dye reduction assay after 3-hr incubation with resazurin at 37° C. FIG. 6B: Following exposure to compounds, aliquots of the culture in each well were spotted onto compound-free YPD agar and plates incubated at 30° C. for an additional 24 hours before imaging to assess viability. The entire experiment consisting of growth in liquid culture followed by spotting onto YPD agar was repeated once.
(§5) Antifungal sensitivity testing. […] Each compound was tested in duplicate in at least two independent experiments. […] Plates were photographed after 24 h of incubation at 30° C.

C. albicans Hsp90 NBD [11] = biological target: T2, C. albicans Hsp90 NBD; assay type: binding; details: equimolar protein and ligand (10 μM)
Protocol: Using recombinant proteins, assay-independent nanomolar inhibitory constants (Ki) were defined for these compounds. Binding of the compounds to their relevant NBD by thermal shift denaturation assays was also confirmed. Thermal shift assays were performed under saturating ligand conditions, i.e. equimolar concentrations (10 μM) of protein and ligand. As a result, they can provide only qualitative evidence of target binding, but not a quantitative measurement of ligand affinity. […] […]. C. neoformans or C. albicans Hsp90 NBD was combined with equimolar concentrations of the indicated bioactive inhibitors (10 μM) or DMSO control, in technical triplicates. The protein was heated from 25 to 98.6° C. at 0.2° C./5 s in the presence of Sypro Orange dye. All compounds induce an increase in melting temperature relative to the DMSO control, reported as ΔTm.
Protein thermal shift assays. Thermal melting curves were determined using a Protein Thermal Shift Kit (ThermoFisher #4462263), employing a CFX384 Real-Time PCR System (Bio-Rad, C1000 Touch Thermal Cycler). […] Temperature shift, ΔTm, was recorded as the difference between the Tm of the fungal Hsp90 NBD with compound minus Tm of the protein without compound.

[12] = system: C. albicans clinical isolate (CaCi2); assay type: cell-based; details: moderately fluconazole-resistant clinical isolate of C. albicans (CaCi2), 8 μg/mL fluconazole
Protocol: as §3, §4
Yeast strains and culture conditions. Strains used in this study were C. albicans CaCi2 (clinical isolate 2), [58] SC5314, [59] and C. neoformans H99. […] Active cultures were maintained on solid (2% agar) yeast extract peptone (YPD, 1% yeast extract, 2% bactopeptone, 2% glucose) at 4° C. for no more than one month.
as §5

C. albicans Hsp90 NBD [13] = biological target: T2, C. albicans Hsp90 NBD; details: cited from earlier work

Hsp90 (C. neoformans whole cell lysate) (Cryptococcus neoformans, UniProt J9VVA4), sequence (J9VVA4 1-699): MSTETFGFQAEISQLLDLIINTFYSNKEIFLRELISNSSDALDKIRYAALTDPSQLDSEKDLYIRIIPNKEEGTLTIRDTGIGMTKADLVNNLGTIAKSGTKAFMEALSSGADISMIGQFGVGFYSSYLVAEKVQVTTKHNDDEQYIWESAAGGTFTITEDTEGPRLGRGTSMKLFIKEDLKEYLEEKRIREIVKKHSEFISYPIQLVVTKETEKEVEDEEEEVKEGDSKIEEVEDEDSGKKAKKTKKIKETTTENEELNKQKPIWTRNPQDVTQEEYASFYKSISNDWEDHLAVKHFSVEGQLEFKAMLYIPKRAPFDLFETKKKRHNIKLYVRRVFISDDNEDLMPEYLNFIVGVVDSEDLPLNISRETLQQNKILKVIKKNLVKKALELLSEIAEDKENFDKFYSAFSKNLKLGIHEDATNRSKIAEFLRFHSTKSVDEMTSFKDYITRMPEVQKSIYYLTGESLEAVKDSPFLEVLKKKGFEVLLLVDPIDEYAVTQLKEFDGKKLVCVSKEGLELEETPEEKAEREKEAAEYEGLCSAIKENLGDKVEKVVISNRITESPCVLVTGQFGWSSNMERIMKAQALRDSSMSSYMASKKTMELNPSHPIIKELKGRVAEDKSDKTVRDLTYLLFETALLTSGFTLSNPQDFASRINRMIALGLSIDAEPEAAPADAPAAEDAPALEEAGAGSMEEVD
T1 sequence (J9VVA4 1-699): as above
T2 sequence (P46598 1-240 limits assumed): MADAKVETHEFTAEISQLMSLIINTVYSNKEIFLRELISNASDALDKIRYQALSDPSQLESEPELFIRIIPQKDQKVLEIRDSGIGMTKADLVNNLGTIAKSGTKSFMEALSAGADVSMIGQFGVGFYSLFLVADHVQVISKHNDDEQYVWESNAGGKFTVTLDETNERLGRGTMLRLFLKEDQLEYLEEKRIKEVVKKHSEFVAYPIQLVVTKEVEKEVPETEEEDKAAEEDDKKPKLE

| SMILES | C. neo MIC80 [3] [µM] | C. neo MIC90 [3] [µM] | C. neo Active (cells) [3] | C. neo Selectivity (FS) (C. neoformans Hsp90 NBD [4]) | C. neo Active (biochemical) [5] | EC50 [5] [µM] | C. neo selective [6] | C. alb Selectivity (FS) [7] | C. alb Selective [7] | C. alb Active (biochemical) [8] | EC50 [8] [µM] | C. neoformans NBD ΔTm (C. neoformans Hsp90 NBD [9]) [°C] | fungicidal activity in combination with fluconazole [10] | further results |
| --- | --- | --- | --- | --- | --- | --- | --- | --- | --- | --- | --- | --- | --- | --- |
| C[C@@H]1C[C@H]2O[C@@H]2/C=C\C=C\C(=O)Cc2c(Cl)c(O)cc(O)c2C(=O)O1 [Radicicol, radicicol] |  |  |  |  |  |  |  |  |  |  |  |  |  | Kd (C. neoformans Hsp90 NBD [1]): 0.002 µM; Kd (C. albicans Hsp90 NBD [2]): 0.002 µM |
| COc1ccccc1-c1cc(Nc2cc(O)cc(O)c2C(=O)N2CC[C@H](NC(C)=O)C2)n(C)n1 [ACSM01348] | >25 | >25 | No | 107.7 | Yes | 0.62 | Yes | >5 | Yes | Yes | 2.25 |  |  |  |
| COc1ccccc1-c1cc(Nc2cc(O)cc(O)c2C(=O)N2CC[C@@H](OC)C2)n(C)n1 [ACSM01350] | >25 | >25 | No | 259.7 | Yes | 0.106 | Yes | 9.2 | Yes | Yes | 0.233 |  |  |  |
| Cn1nc(-c2ccc(C(F)(F)F)cc2)cc1Nc1cc(O)cc(O)c1C(=O)N1Cc2ccccc2C1 [Compound 124, 4-(2,3-Dihydro-1H-isoindole-2-carbonyl)-5-((1-methyl-3-(4-(trifluoromethyl)phenyl)-1H-pyrazol-5-yl)amino)benzene-1,3-diol] |  |  |  |  |  |  |  |  |  |  |  | 1 |  | Ki (C. neoformans Hsp90 NBD [4]; FP, purified recombinant NBD): 0.19 µM |
| Cc1cc(Nc2cc(O)cc(O)c2C(=O)N2Cc3ccccc3C2)n(Cc2ccccc2Cl)n1 [Compound 89, 5-((1-((2-Chlorophenyl)methyl)-3-methyl-1H-pyrazol-5-yl)amino)-4-(2,3-dihydro-1H-isoindole-2-carbonyl)benzene-1,3-diol] |  |  |  |  |  |  |  |  |  |  |  | 12 | fungicidal activity in combination with fluconazole |  |
| Cn1nc(-c2ccc(OC(F)(F)F)cc2)cc1Nc1cc(O)cc(O)c1C(=O)N1Cc2ccccc2C1 [Compound 130, 4-(2,3-Dihydro-1H-isoindole-2-carbonyl)-5-((1-methyl-3-(4-(trifluoromethoxy)phenyl)-1H-pyrazol-5-yl)amino)benzene-1,3-diol] |  |  | No |  |  |  |  |  |  |  |  |  | converted the fungistatic activity of fluconazole to fungicidal | MIC80 ([3]; Cryptococcus neoformans, read-out: C. neo MIC80): > 25 µM; MIC90 ([3]; Cryptococcus neoformans, read-out: C. neo MIC90): > 25 µM; C. albicans NBD ΔTm (C. albicans Hsp90 NBD [11]): 9 °C; MIC in combination with fluconazole [12]: 12.5 µM; Kd (C. neoformans Hsp90 NBD [1]): 0.007 µM |
| COc1ccc(Cn2ncc(C)c2Nc2cc(O)cc(O)c2C(=O)N2Cc3ccccc3C2)cc1 [Compound 41, 4-(2,3-Dihydro-1H-isoindole-2-carbonyl)-5-((1-((4-methoxyphenyl)methyl)-4-methyl-1H-pyrazol-5-yl)amino)benzene-1,3-diol] |  |  |  |  |  |  |  |  |  |  |  |  | fungicidal activity in combination with fluconazole |  |
| COc1ccc(CON=C2C=CC=CC3OC3CC(C)OC(=O)c3c(O)cc(O)cc3C2)cc1 (centres unmarked) [CMLD013075] |  |  |  |  |  |  |  |  |  |  |  |  |  | binding selectivity for the C. albicans Hsp90 NBD compared to the human ortholog (C. albicans Hsp90 NBD [13]): > 25 fold |
| COc1ccccc1-c1cc(Nc2cc(O)cc(O)c2C(=O)N2CC[C@H](NC(C)=O)C2)n(C)n1 [ACSM01349] | >25 | >25 | No | 159.7 | Yes | 0.246 | Yes | 9.5 | Yes | Yes | 1.21 |  |  |  |
| COc1ccc(Cn2nc(-c3ccccc3)cc2Nc2cc(O)cc(O)c2C(=O)N2Cc3ccccc3C2)cc1 [Compound 21, 4-(2,3-dihydro-1H-isoindole-2-carbonyl)-5-((1-((4-methoxyphenyl)methyl)-3-phenyl-1H-pyrazol-5-yl)amino)benzene-1,3-diol] |  |  |  |  |  |  |  |  |  |  |  | 14 | fungicidal activity in combination with fluconazole |  |
